How the values were obtained:
Estrogen receptor = biological target: T1, Estrogen receptor (Homo sapiens, UniProt P03372); test: Concentration required to activate luciferase expression in MCF-7-2a cells; format: functional, cell-based
T1 sequence (P03372 whole entry): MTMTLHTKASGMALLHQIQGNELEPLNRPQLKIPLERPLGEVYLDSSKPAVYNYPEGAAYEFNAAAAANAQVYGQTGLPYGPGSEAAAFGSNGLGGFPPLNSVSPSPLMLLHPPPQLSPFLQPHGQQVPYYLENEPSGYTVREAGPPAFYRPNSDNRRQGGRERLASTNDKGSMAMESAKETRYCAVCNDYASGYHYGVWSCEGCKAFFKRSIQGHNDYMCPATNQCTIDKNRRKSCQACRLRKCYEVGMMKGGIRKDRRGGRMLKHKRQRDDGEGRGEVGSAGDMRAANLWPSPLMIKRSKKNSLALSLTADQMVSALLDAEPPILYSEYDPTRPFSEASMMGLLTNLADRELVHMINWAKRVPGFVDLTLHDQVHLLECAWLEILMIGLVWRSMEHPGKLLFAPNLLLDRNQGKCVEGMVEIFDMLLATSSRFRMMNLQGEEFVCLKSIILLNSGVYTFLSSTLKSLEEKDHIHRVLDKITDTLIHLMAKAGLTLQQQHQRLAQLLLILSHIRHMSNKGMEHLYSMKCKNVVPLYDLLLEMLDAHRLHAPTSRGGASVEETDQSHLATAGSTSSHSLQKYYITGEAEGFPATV

[1] = Rate constant at 7.4 pH; format: ADME; details: pH 7.4
[2] = Half life at 7.4 pH; format: ADME; details: pH 7.4
[3] = Half life at 7.4 pH; No decomposition was observed within 55h; format: ADME; details: pH 7.4, 55 h
[4] = Rate constant at 7.4 pH; No decomposition was observed within 55h; format: ADME; details: pH 7.4, 55 h

SMILES | EC50 (Estrogen receptor) [nM] | k obs [1] [h⁻¹] | half-life [2] [h] | T1/2 [3] | k obs [4]
N[C@H](c1ccc(O)cc1Cl)[C@@H](NC=O)c1ccc(O)cc1Cl | 3000 | – | – | – | –
CCN1C=N[C@@H](c2ccc(O)cc2Cl)[C@H]1c1ccc(O)cc1Cl | 15 | 0.004 | 154 | – | –
CCCN1C=N[C@@H](c2ccc(O)cc2Cl)[C@H]1c1ccc(O)cc1Cl | 150 | – | – | – | –
Oc1ccc([C@H]2N=CN[C@H]2c2c(Cl)cc(O)cc2Cl)c(Cl)c1 | 65 | 0.052 | 13.4 | – | –
Oc1ccc([C@H]2N=CN[C@H]2c2ccc(O)cc2)cc1 | – | 0.122 | 6.36 | – | –
OCCC1=N[C@H](c2ccc(O)cc2Cl)[C@H](c2ccc(O)cc2Cl)N1 | – | – | – | Stable | Stable
CN1C=N[C@@H](c2ccc(O)cc2Cl)[C@H]1c1ccc(O)cc1Cl | 300 | – | – | – | –
Oc1ccc([C@H]2NC=N[C@H]2c2ccc(O)cc2Cl)c(Cl)c1 | – | 0.15 | 5.94 | – | –
COc1ccc([C@H]2N=CN[C@H]2c2ccc(OC)cc2Cl)c(Cl)c1 | – | 0.198 | 4.58 | – | –
N[C@H](c1ccc(O)cc1Cl)[C@@H](N)c1ccc(O)cc1Cl | 1500 | – | – | – | –
CN1C=[N+](C)[C@@H](c2ccc(O)cc2Cl)[C@H]1c1ccc(O)cc1Cl | 780 | – | – | – | –
CCN1C=[N+](CC)[C@@H](c2ccc(O)cc2Cl)[C@H]1c1ccc(O)cc1Cl | 500 | – | – | Stable | Stable
CC1=N[C@@H](c2c(Cl)cc(O)cc2Cl)[C@@H](c2ccc(O)cc2Cl)N1 | 5000 | – | – | – | –

Reference: ChEMBL document CHEMBL1148415, “Effects of C2-alkylation, N-alkylation, and N,N'-dialkylation on the stability and estrogen receptor interaction of (4R,5S)/(4S,5R)-4,5-bis(4-hydroxyphenyl)-2-imidazolines” (J Med Chem, 2004)
